Test results from patent US20240230620A1, “CURRENT AND […]” (National Taiwan University, priority 2023, published 2024).
Read-outs that look alike come from different tables or passages of the source.

Columns and labels:
Gα subunit = settings: fluorescence
Protocol: The intrinsic tryptophan in the switch-II region serves as a fluorescent probe for examining the activity of Ga subunit. In the AlF4^− dependent activation assay, the AlF4^− bound to GDP mimics the transition state of GTP hydrolysis, stimulating the conformational change of the switch-II region and enhancing the fluorescence quantum yields of intrinsic Trp. This principle was also applied to GDP/GTP auto-exchange, but it was conducted using of GTPγS, a non-hydrolyzable GTP analog. In the time-course of Trp fluorescence measurement, the excitation and emission wavelengths were 280 and 340 nm, respectively, and both slits are 10 nm. For AlF4^− dependent activation assay, 20 μL 20 μM Ga protein was first added into a cuvette filled with 1.5 mL buffer G without BME and PMSF at 50 s. Then 40 μL 500 mM NaF and 20 μL 10 mM AlCl3 were added simultaneously at 100 s. For GDP/GTP auto-exchange, the experiments were conducted as described above using 1 μM GTPγS instead of AlF4^−.
The effectiveness of Gα inactivation using EDTA was analyzed by fluorescence (FIG. 23(A)).

AtGPA1 [1] = biological target: T1, AtGPA1 (Arabidopsis thaliana, UniProt P18064); settings: derived from radioactive GTPγS assay; read-out: KD of AtGPA1 and GTPγS, previous study; cited from earlier work
T1 sequence (P18064 1-383): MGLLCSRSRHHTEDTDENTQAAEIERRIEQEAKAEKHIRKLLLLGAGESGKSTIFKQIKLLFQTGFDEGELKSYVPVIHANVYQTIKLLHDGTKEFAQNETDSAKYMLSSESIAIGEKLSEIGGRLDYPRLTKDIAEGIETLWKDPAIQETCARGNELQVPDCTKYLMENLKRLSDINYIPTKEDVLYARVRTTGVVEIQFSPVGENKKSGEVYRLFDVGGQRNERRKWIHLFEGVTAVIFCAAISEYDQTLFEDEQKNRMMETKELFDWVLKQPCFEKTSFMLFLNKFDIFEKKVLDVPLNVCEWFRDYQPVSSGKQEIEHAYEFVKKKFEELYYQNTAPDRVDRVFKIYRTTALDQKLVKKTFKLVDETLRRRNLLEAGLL

AtGPA1 [2] = biological target: T1, AtGPA1; experiment: GTPγS saturation binding analysis of AtGPA1 (photocurrent and fluorescence); settings: percent of maximum fitted to a hyperbola, preliminary test
Protocol: The photo-induced-voltage-generating solution chamber was filled with 20 mg/mL HEBR solution in the dual chamber format. The sample to be tested was added to the sample chamber at a volume of 100-150 μL. The photo-induced-voltage-generating solution chamber was illuminated by a 10-Hz, 532-nm flash laser (Nd-YAG laser, 6 ns pulse, pump energy 21 J) via a central control unit (Raspberry Pi 400) to generate the alternating photocurrent. The data recording system was identical to steady-state photocurrent measurement. Each data was collected at a single trigger event. The laser was triggered at 0 s and stopped at 40 s with each 5 s pre-trigger and post-illumination. Then, the raw data were recorded in a .csv file and processed by the Python code. The processed data were exported to an excel file for further analysis.
After the successful measurement of the interaction of Gα with its ligand, the present device was extended to measure the KD of Gα and its ligands. In preliminary test, the plant Arabidopsis thaliana Gα AtGPA1 and a non-hydrolyzable GTP analog GTPγS were adopted. […] The AtGPA1 was purified and analyzed the activity using the identical method in mammalian Gα purification.
Referring to FIG. 24, to calculate the KD of AtGPA1 and GTPγS, both photocurrent and fluorescence were measured. […]

| SMILES | Gα subunit inactivation (Gα subunit; 20 μM Gα subunit at 100 mM EDTA) | reduction of Gα subunit activity (Gα subunit; 20 μM Gα subunit in 10 mM EDTA) | Kd (AtGPA1 [1]) | Kd (AtGPA1 [2]) |
| --- | --- | --- | --- | --- |
| O=C(O)CN(CCN(CC(=O)O)CC(=O)O)CC(=O)O [EDTA] | almost inactivated | more than 60% |  |  |
| Nc1nc2c(ncn2[C@@H]2O[C@H](COP(=O)(O)OP(=O)(O)OP(O)(O)=S)[C@@H](O)[C@H]2O)c(=O)[nH]1 [GTPγS] |  |  | 0.8 nM | ~1.5 nM |
